Activity calls are given as the source filed them. The calls are words filed in the database; no cut-off is given here.
How the values were obtained:
[1] = target: Serine/threonine-protein kinase 32B (Homo sapiens) (UniProt Q9NY57); assay: YANK2 DiscoveRx kinase panel; conditions: Compound concentration 1.0 uM
[2] = target: Peripheral plasma membrane protein CASK (Homo sapiens) (UniProt O14936); assay: CASK DiscoveRx kinase panel; conditions: Compound concentration 1.0 uM
[3] = target: Misshapen-like kinase 1 (Homo sapiens) (UniProt Q8N4C8); assay: MINK DiscoveRx kinase panel; conditions: Compound concentration 1.0 uM
[4] = target: Cyclin-dependent kinase 3 (Homo sapiens) (UniProt Q00526); assay: CDK3 DiscoveRx kinase panel; conditions: Compound concentration 1.0 uM
[5] = target: Calcium/calmodulin-dependent protein kinase type 1 (Homo sapiens) (UniProt Q14012); assay: CAMK1 DiscoveRx kinase panel; conditions: Compound concentration 1.0 uM
[6] = target: Mitogen-activated protein kinase kinase kinase 6 (Homo sapiens) (UniProt O95382); assay: ASK2 DiscoveRx kinase panel; conditions: Compound concentration 1.0 uM
[7] = target: T1, Mitotic checkpoint serine/threonine-protein kinase BUB1 (Homo sapiens, UniProt O43683); assay: BUB1 biochemical assay (high ATP)
[8] = target: Wee1-like protein kinase (Homo sapiens) (UniProt P30291); assay: WEE1 DiscoveRx kinase panel; conditions: Compound concentration 1.0 uM
[9] = target: Serine/threonine-protein kinase STK11 (Homo sapiens) (UniProt Q15831); assay: LKB1 DiscoveRx kinase panel; conditions: Compound concentration 1.0 uM
[10] = target: Serine/threonine-protein kinase 32A (Homo sapiens) (UniProt Q8WU08); assay: YANK1 DiscoveRx kinase panel; conditions: Compound concentration 1.0 uM
[11] = target: Serine/threonine-protein kinase tousled-like 2 (Homo sapiens) (UniProt Q86UE8); assay: TLK2 DiscoveRx kinase panel; conditions: Compound concentration 1.0 uM
[12] = target: Inhibitor of nuclear factor kappa-B kinase subunit beta (Homo sapiens) (UniProt O14920); assay: IKK-beta DiscoveRx kinase panel; conditions: Compound concentration 1.0 uM
[13] = target: Estrogen receptor (Homo sapiens) (UniProt P03372); conditions: Compound concentration 10.0 uM
[14] = target: Inhibitor of nuclear factor kappa-B kinase subunit epsilon (Homo sapiens) (UniProt Q14164); assay: IKK-epsilon DiscoveRx kinase panel; conditions: Compound concentration 1.0 uM
Rattus norvegicus = species: Rattus norvegicus; conditions: Compound concentration 10.0 uM
[15] = target: G protein-coupled receptor kinase 3 (Homo sapiens) (UniProt P35626); assay: GRK3 DiscoveRx kinase panel; conditions: Compound concentration 1.0 uM
[16] = target: Macrophage-stimulating protein receptor (Homo sapiens) (UniProt Q04912); assay: MST1R DiscoveRx kinase panel; conditions: Compound concentration 1.0 uM
[17] = target: Serine/threonine-protein kinase PRP4 homolog (Homo sapiens) (UniProt Q13523); assay: PRP4 DiscoveRx kinase panel; conditions: Compound concentration 1.0 uM
[18] = target: Myosin light chain kinase, smooth muscle (Homo sapiens) (UniProt Q15746); assay: MYLK DiscoveRx kinase panel; conditions: Compound concentration 1.0 uM
[19] = target: D(2) dopamine receptor (Homo sapiens) (UniProt P14416); conditions: Compound concentration 10.0 uM
[20] = target: Beta-3 adrenergic receptor (Homo sapiens) (UniProt P13945); conditions: Compound concentration 10.0 uM
[21] = target: Calcium/calmodulin-dependent protein kinase type II subunit gamma (Homo sapiens) (UniProt Q13555); assay: CAMK2G DiscoveRx kinase panel; conditions: Compound concentration 1.0 uM
[22] = target: Non-receptor tyrosine-protein kinase TYK2 (Homo sapiens) (UniProt P29597); assay: TYK2(JH2domain-pseudokinase) DiscoveRx kinase panel; conditions: Compound concentration 1.0 uM
[23] = target: Mitogen-activated protein kinase kinase kinase kinase 4 (Homo sapiens) (UniProt O95819); assay: MAP4K4 DiscoveRx kinase panel; conditions: Compound concentration 1.0 uM
[24] = target: Megakaryocyte-associated tyrosine-protein kinase (Homo sapiens) (UniProt P42679); assay: CTK DiscoveRx kinase panel; conditions: Compound concentration 1.0 uM
[25] = target: 5-hydroxytryptamine receptor 5A (Homo sapiens) (UniProt P47898); conditions: Compound concentration 10.0 uM
[26] = target: Serine/threonine-protein kinase Nek3 (Homo sapiens) (UniProt P51956); assay: NEK3 DiscoveRx kinase panel; conditions: Compound concentration 1.0 uM
[27] = target: 5-hydroxytryptamine receptor 1A (Homo sapiens, UniProt P08908); assay: GPCRScan assay: inhibition of 5-HT1A; set-up: radioligand conc. used [nm] 0.5 – 1.0, parental cells stable CHO
[28] = target: AP2-associated protein kinase 1 (Homo sapiens) (UniProt Q2M2I8); assay: AAK1 DiscoveRx kinase panel; conditions: Compound concentration 1.0 uM
[29] = test system: eIF-2-alpha kinase GCN2 (Homo sapiens), Q9P2K8 [S808G]; assay: GCN2(Kin.Dom.2,S808G) DiscoveRx kinase panel; conditions: Compound concentration 1.0 uM
[30] = target: Calcium/calmodulin-dependent protein kinase kinase 2 (Homo sapiens) (UniProt Q96RR4); assay: CAMKK2 DiscoveRx kinase panel; conditions: Compound concentration 1.0 uM
[31] = target: Tyrosine-protein kinase HCK (Homo sapiens) (UniProt P08631); assay: HCK DiscoveRx kinase panel; conditions: Compound concentration 1.0 uM
[32] = target: Glutamate NMDA receptor (Rattus norvegicus) (UniProt P35439+Q00959+Q00960+Q00961+Q62645+Q8VHN2+Q9R1M7); conditions: Compound concentration 10.0 uM
[33] = target: 5-hydroxytryptamine receptor 2C (Homo sapiens) (UniProt P28335); conditions: Compound concentration 10.0 uM
[34] = target: Serine/threonine-protein kinase/endoribonuclease IRE1 (Homo sapiens) (UniProt O75460); assay: ERN1 DiscoveRx kinase panel; conditions: Compound concentration 1.0 uM
[35] = target: Serine/threonine-protein kinase 36 (Homo sapiens) (UniProt Q9NRP7); assay: STK36 DiscoveRx kinase panel; conditions: Compound concentration 1.0 uM
[36] = target: Dual specificity protein kinase CLK3 (Homo sapiens) (UniProt P49761); assay: CLK3 DiscoveRx kinase panel; conditions: Compound concentration 1.0 uM
MDA-MB-436 = assay: MDA-MB-436 cell line Proliferation assay; format: functional, Homo sapiens; conditions: time 4 day
[37] = target: Proto-oncogene tyrosine-protein kinase ROS (Homo sapiens) (UniProt P08922); assay: ROS1 DiscoveRx kinase panel; conditions: Compound concentration 1.0 uM
[38] = target: T1, Mitotic checkpoint serine/threonine-protein kinase BUB1; assay: TR-FRET
[39] = target: TGF-beta receptor type-1 (Homo sapiens) (UniProt P36897); assay: TGFBR1 DiscoveRx kinase panel; conditions: Compound concentration 1.0 uM
[40] = target: Mitogen-activated protein kinase 7 (Homo sapiens) (UniProt Q13164); assay: ERK5 DiscoveRx kinase panel; conditions: Compound concentration 1.0 uM
[41] = target: Serine/threonine-protein kinase 25 (Homo sapiens) (UniProt O00506); assay: YSK1 DiscoveRx kinase panel; conditions: Compound concentration 1.0 uM
[42] = target: L-type calcium channel, benzothiazepine site (Cav1.2 alpha-1C) (Homo sapiens, UniProt Q13936); assay: Inhibition of Calcium Channel L-Type, Benzothiazepine at 10 µM in the Eurofins-Panlabs radioligand binding assay (Eurofins_assay_214510); set-up: ligand concentration 2 nM, non-specific ligand with concentration 10 µM Diltiazem, incubation time 3h, incubation temperature 4 °C; conditions: male, Wistar, rat, rat whole brain preparation, probe [3H] Diltiazem; compound concentration 10 uM; target entry is the homologue from another species
[43] = target: Mitogen-activated protein kinase kinase kinase 3 (Homo sapiens) (UniProt Q99759); assay: MAP3K3 DiscoveRx kinase panel; conditions: Compound concentration 1.0 uM
[44] = target: Tyrosine-protein kinase ITK/TSK (Homo sapiens) (UniProt Q08881); assay: ITK DiscoveRx kinase panel; conditions: Compound concentration 1.0 uM
[45] = target: Cyclin-dependent kinase 2 (Homo sapiens) (UniProt P24941); assay: CDK2 DiscoveRx kinase panel; conditions: Compound concentration 1.0 uM
[46] = target: Serine/threonine-protein kinase LATS2 (Homo sapiens) (UniProt Q9NRM7); assay: LATS2 DiscoveRx kinase panel; conditions: Compound concentration 1.0 uM
[47] = target: Ribosomal protein S6 kinase alpha-3 (Homo sapiens) (UniProt P51812); assay: RSK2(Kin.Dom.1-N-terminal) DiscoveRx kinase panel; conditions: Compound concentration 1.0 uM

T1 sequence (O43683 whole entry): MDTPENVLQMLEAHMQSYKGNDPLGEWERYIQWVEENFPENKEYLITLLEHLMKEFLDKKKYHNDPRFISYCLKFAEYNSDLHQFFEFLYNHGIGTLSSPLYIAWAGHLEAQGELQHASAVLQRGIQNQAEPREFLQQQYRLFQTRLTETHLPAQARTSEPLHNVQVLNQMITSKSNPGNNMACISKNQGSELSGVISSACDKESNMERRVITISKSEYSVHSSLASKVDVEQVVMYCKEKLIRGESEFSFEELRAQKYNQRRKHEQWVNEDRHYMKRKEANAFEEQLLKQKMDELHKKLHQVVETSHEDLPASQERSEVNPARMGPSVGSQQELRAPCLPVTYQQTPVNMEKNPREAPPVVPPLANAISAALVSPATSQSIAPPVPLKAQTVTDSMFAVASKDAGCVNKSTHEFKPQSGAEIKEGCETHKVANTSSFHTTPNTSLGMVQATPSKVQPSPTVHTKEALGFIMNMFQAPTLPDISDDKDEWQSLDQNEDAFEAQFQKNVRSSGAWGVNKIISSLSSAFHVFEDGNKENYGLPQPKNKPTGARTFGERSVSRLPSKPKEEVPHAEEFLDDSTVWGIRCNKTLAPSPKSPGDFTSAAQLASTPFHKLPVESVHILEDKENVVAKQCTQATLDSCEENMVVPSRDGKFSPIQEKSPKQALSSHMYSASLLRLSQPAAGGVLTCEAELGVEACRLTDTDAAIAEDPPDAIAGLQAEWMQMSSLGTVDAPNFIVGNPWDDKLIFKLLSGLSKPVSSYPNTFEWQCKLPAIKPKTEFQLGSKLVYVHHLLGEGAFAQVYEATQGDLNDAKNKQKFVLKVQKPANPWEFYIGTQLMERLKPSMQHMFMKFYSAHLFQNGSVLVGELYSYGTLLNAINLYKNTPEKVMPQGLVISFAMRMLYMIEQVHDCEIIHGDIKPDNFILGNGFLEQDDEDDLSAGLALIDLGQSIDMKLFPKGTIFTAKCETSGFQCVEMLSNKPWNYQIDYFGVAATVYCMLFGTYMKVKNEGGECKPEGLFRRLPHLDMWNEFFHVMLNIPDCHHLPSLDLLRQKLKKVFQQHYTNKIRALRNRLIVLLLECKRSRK
Sequence of Serine/threonine-protein kinase 32B (Homo sapiens) (Q9NY57 whole entry): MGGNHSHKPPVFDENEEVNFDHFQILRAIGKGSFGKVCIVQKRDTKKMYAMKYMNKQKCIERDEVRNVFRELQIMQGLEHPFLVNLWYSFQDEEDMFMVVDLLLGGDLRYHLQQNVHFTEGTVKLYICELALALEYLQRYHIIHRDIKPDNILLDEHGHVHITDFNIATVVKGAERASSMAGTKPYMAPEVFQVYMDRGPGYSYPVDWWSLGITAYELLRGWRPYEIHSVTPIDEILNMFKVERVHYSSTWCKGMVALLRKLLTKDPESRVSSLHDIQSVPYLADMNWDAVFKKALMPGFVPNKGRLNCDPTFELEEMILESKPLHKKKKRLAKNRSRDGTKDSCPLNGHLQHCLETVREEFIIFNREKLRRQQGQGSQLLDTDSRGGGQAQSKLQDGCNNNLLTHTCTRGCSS
Sequence of Serine/threonine-protein kinase/endoribonuclease IRE1 (Homo sapiens) (O75460 19-977 limits assumed): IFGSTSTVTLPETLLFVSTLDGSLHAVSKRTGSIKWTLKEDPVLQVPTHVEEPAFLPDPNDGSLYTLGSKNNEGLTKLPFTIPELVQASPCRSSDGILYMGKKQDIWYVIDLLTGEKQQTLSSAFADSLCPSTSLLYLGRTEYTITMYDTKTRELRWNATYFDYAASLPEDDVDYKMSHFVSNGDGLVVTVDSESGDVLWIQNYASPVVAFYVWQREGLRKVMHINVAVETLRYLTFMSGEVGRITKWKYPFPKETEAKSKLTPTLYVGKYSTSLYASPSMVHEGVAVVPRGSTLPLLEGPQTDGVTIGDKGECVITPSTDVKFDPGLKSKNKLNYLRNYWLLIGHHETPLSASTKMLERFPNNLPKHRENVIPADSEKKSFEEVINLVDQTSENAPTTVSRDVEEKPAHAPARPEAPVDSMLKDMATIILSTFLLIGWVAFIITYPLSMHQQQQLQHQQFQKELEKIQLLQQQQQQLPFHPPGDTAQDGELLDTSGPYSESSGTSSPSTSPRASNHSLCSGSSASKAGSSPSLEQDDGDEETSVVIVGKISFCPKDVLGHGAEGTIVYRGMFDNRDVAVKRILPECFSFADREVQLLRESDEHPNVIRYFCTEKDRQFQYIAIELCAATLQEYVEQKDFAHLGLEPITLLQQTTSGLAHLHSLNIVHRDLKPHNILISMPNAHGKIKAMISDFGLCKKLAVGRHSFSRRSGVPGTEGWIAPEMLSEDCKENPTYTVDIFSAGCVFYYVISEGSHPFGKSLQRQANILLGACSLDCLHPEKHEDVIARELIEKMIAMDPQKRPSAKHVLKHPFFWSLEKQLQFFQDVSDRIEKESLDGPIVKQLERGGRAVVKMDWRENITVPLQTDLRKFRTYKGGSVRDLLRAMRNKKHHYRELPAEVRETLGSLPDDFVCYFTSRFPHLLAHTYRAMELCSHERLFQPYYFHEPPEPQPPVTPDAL
Sequence of Inhibitor of nuclear factor kappa-B kinase subunit epsilon (Homo sapiens) (Q14164 whole entry): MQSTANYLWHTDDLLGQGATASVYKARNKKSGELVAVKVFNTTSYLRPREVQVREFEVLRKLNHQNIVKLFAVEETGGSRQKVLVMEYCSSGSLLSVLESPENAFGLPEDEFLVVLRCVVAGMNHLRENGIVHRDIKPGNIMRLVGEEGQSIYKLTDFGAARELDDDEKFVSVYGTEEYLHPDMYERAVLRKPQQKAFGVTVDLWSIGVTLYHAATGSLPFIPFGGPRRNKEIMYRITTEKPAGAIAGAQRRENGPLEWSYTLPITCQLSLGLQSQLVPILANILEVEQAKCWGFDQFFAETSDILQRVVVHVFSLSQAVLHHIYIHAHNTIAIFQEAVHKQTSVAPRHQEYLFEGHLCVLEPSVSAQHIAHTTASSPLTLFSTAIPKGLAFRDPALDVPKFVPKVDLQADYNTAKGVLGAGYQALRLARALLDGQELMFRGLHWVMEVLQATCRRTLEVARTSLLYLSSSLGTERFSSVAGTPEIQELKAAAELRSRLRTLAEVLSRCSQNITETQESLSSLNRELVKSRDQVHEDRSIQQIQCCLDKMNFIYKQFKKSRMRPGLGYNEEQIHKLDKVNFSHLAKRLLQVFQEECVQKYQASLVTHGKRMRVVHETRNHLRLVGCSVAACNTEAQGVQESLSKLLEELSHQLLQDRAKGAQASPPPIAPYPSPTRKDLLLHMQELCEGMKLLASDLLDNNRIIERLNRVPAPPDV
Sequence of Serine/threonine-protein kinase LATS2 (Homo sapiens) (Q9NRM7 whole entry): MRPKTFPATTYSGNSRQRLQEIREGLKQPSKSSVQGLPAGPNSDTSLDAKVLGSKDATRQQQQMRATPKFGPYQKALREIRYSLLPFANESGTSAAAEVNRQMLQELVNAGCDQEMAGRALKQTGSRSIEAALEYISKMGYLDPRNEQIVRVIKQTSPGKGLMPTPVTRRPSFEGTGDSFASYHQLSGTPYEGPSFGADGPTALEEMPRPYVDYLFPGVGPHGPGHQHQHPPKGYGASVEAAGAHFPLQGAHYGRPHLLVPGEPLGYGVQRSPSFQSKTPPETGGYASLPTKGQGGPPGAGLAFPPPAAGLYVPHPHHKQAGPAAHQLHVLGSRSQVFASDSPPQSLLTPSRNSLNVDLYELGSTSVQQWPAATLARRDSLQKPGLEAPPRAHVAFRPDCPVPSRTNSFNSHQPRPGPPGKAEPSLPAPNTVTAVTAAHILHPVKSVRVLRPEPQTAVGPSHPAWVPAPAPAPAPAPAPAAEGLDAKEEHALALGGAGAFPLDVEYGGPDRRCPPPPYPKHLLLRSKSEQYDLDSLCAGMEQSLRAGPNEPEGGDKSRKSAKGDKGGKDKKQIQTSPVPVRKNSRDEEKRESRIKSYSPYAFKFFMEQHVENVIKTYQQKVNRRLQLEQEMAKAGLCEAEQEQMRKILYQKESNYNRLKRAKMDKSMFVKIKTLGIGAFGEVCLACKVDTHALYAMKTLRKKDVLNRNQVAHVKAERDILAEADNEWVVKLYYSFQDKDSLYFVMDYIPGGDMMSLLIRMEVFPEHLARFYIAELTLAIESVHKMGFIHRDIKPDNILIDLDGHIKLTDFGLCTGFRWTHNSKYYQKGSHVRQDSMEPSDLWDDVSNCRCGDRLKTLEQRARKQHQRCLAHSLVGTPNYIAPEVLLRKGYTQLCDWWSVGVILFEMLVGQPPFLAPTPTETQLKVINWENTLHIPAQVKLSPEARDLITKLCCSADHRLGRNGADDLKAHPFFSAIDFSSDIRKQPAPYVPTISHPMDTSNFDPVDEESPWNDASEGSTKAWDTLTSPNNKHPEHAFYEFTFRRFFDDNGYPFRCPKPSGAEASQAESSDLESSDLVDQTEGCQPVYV
Sequence of Tyrosine-protein kinase ITK/TSK (Homo sapiens) (Q08881 whole entry): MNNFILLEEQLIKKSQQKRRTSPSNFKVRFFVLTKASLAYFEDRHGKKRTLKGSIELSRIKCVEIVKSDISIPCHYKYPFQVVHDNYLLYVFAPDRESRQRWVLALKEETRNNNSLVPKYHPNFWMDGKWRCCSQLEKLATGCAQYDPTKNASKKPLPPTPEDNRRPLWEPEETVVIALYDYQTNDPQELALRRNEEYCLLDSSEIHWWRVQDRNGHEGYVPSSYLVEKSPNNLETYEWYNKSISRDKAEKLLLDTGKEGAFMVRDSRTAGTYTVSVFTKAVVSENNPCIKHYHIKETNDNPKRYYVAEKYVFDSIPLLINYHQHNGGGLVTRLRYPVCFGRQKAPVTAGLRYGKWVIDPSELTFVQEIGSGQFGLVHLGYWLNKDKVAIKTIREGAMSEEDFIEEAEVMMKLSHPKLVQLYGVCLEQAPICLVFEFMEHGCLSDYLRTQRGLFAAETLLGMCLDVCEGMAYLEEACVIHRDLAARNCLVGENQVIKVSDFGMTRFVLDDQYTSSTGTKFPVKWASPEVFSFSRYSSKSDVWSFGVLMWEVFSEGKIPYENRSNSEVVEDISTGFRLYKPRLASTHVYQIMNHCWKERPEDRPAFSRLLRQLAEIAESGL

SMILES: COc1cnccc1Nc1nc(-c2nn(Cc3c(F)cc(OCCO)cc3F)c3ccccc23)ncc1OC
- residual activity [1]: 82%
- residual activity [2]: 78%
- residual activity [3]: 76%
- residual activity [4]: 99%
- residual activity [5]: 52%
- residual activity [6]: 82%
- IC50 [7]: 1900 nM (not active)
- residual activity [8]: 100%
- residual activity [9]: 100%
- residual activity [10]: 71%
- residual activity [11]: 96%
- residual activity [12]: 100%
- inhibition [13]: 10%
- residual activity [14]: 92%
- inhibition (Rattus norvegicus): 1%
- residual activity [15]: 100%
- residual activity [16]: 80%
- residual activity [17]: 96%
- residual activity [18]: 100%
- inhibition [19]: 17%
- inhibition [20]: 4.26%
- residual activity [21]: 100%
- residual activity [22]: 100%
- residual activity [23]: 62%
- residual activity [24]: 97%
- inhibition [25]: -6.97%
- residual activity [26]: 100%
- Ki [27]: 9440 nM
- residual activity [28]: 100%
- residual activity [29]: 91%
- residual activity [30]: 100%
- residual activity [31]: 100%
- inhibition [32]: 4%
- inhibition [33]: 21%
- residual activity [34]: 100%
- residual activity [35]: 68%
- residual activity [36]: 100%
- Cell Proliferation IC50 (MDA-MB-436): 1200 nM
- residual activity [37]: 100%
- EC50 [38]: 6.1 nM (active)
- residual activity [39]: 53%
- residual activity [40]: 94%
- residual activity [41]: 76%
- inhibition at 3 h, 10 µM [42]: -10% (not active)
- residual activity [43]: 95%
- residual activity [44]: 100%
- residual activity [45]: 89%
- residual activity [46]: 100%
- residual activity [47]: 100%
